# How the values were obtained:
# IGE-like antibodies = conditions: in vivo; cited from earlier work
# [1] = test system: experimental allergic encephalomyelitis, a model for multiple sclerosis; conditions: cited from earlier work
# Candida albicans = conditions: particularly against Candida albicans, in vitro and in vivo; cited from earlier work
# transplant rejection = conditions: cited from earlier work
# [2] = test system: pinch skin graft rejection; experiment: Survival time of pinch skin graft; format: in vivo, mouse (male DBA/2 donors, male BALB/c recipients); conditions: for Skin Graft survival (days + SD): intraperitoneally, mean graft survival time ± S.D.
# Procedure: (§1) Immunosuppressive activity was evaluated in an in vitro standard pharmacological test procedure to measure lymphocyte proliferation (LAF) and in two in vivo standard pharmacological test procedures. The first in vivo procedure was a popliteal lymph node (PLN) test procedure which measured the effect of compounds of this invention on a mixed lymphocyte reaction and the second in vivo procedure evaluated the survival time of a pinch skin graft.
# The second in vivo test procedure is designed to determine the survival time of pinch skin graft from male DBA/2 donors transplanted to male BALB/c recipients. The method is adapted from Billingham R. E. and Medawar P. B., J. Exp. Biol. 28:385-(402), 1951. Briefly, a pinch skin graft from the donor is grafted on the dorsum of the recipient as a homograft, and an autograft is used as control in the same region. […] Untreated recipients serve as rejection control. The graft is monitored daily and observations are recorded until the graft becomes dry and forms a blackened scab. This is considered as the rejection day. The mean graft survival time (number of days±S.D.) of the drug treatment group is compared with the control group.
# (§2) Transplanted pinch skin grafts are typically rejected within 6-7 days without the use of an immunosuppressive agent. […] (see, I. Roitt et al. Immunology, C. V. Moseby Co. 1989, p 12.8-12.11).
# [3] = test system: Candida albicans ATCC 38247; experiment: Antifungal plate test, MIC, strain ATCC 38247; format: cell-based; conditions: plate disk test
# Procedure: (§3) The following represents the typical procedure used. Compound to be tested was placed on sterile dried 1/4" plate disks, and allowed to dry. Agar plates were seeded with fungi and allowed to solidify. The impregnated disks were placed on the seeded Agar surface and incubated for the time required for the particular culture. Results are expressed in MIC (μg/ml) to inhibit growth.
# [4] = test system: Candida albicans ATCC 38248; experiment: Antifungal plate test, MIC, strain ATCC 38248; format: cell-based; conditions: plate disk test
# Procedure: as §3
# [5] = test system: Candida albicans ATCC 10231; experiment: Antifungal plate test, MIC, strain ATCC 10231; format: cell-based; conditions: plate disk test
# Procedure: as §3
# Candida albicans 3669 = experiment: Antifungal plate test, MIC, strain 3669; format: cell-based; conditions: plate disk test
# Procedure: as §3
# [6] = test system: Candida albicans ATCC 38246; experiment: Antifungal plate test, MIC, strain ATCC 38246; format: cell-based; conditions: plate disk test
# Procedure: as §3
# [7] = test system: thymocyte (lymphocyte) proliferation; experiment: Comitogen-induced thymocyte proliferation procedure (LAF); format: cell-based; conditions: in vitro, thymus cells of BALB/c mice, PHA and IL-1, 72 hours; ratio calculated as described (rapamycin 1.0)
# Procedure: as §1
# (§4) Briefly, cells from the thymus of normal BALB/c mice are cultured for 72 hours with PHA and IL-1 and pulsed with tritiated thymidine during the last six hours. […] Cells are harvested and incorporated; radioactivity is determined. Inhibition of lymphoproliferation is assessed in percent change in counts per minute from non-drug treated controls. The results are expressed by the following ratio: [formula]
# (§5) *Calculation of ratios was described supra.
# as §2
# [8] = test system: mixed lymphocyte reaction in popliteal lymph node (host vs. graft); experiment: Popliteal lymph node (PLN) test procedure, in vivo mixed lymphocyte reaction; design: species or system mouse (BALB/c donors, C3H recipients); conditions: for PLN (ratio): p.o. daily Day 0 to Day 4, ratio calculated as described (rapamycin 1.0)
# Procedure: as §1
# A mixed lymphocyte reaction (MLR) occurs when lymphoid cells from genetically distinct animals are combined in tissue culture. Each stimulates the other to undergo blast transformation which results in increased DNA synthesis that can be quantified by the incorporation of tritiated thymidine. Since stimulating a MLR is a function of disparity at Major Histocompatibility antigens, an in vivo popliteal lymph node (PLN) test procedure closely correlates to host vs. graft disease. Briefly, irradiated spleen cells from BALB/c donors are injected into the right hind foot pad of recipient C3H mice. The drug is given daily, p.o. from Day 0 to Day 4. On Day 3 and Day 4, tritiated thymidine is given i.p., b.i.d. On Day 5, the hind popliteal lymph nodes are removed and dissolved, and radioactivity counted. The corresponding left PLN serves as the control for the PLN from the injected hind foot. Percent suppression is calculated using the non-drug treated animals as allogenic control. […] Results are expressed by the following ratio: [formula]
# as §5, §2
# [9] = test system: immunosuppressive activity; experiment: Standard pharmacological test procedures described supra (isomers of Example 1; overall immunosuppressive activity); design: species or system mouse; conditions: results not presented for the inactive isomer
# Procedure: as §1, §4
# A mixed lymphocyte reaction (MLR) occurs when lymphoid cells from genetically distinct animals are combined in tissue culture. Each stimulates the other to undergo blast transformation which results in increased DNA synthesis that can be quantified by the incorporation of tritiated thymidine. […] On Day 3 and Day 4, tritiated thymidine is given i.p., b.i.d. On Day 5, the hind popliteal lymph nodes are removed and dissolved, and radioactivity counted. […] Percent suppression is calculated using the non-drug treated animals as allogenic control. […]
Compound,Immunosuppressive effect / inhibition of transplant rejection (transplant rejection),Skin Graft survival (days + SD) [2],MIC [3],MIC [4],MIC [5],MIC (Candida albicans 3669),MIC [6],LAF (ratio) [7],also measured
CO[C@H]1C[C@@H]2CC[C@@H](C)[C@@](O)(O2)C(=O)C(=O)N2CCCC[C@H]2C(=O)O[C@H]([C@H](C)C[C@@H]2CC[C@@H](O)[C@H](OC)C2)CC(=O)[C@H](C)/C=C(\C)[C@@H](O)[C@@H](OC)C(=O)[C@H](C)C[C@H](C)/C=C/C=C/C=C/1C [Rapamycin],effective in inhibiting transplant rejection,12.0 ± 1.7 days,–,–,–,–,–,–,"Inhibition of formation of IGE-like antibodies (IGE-like antibodies): effectively inhibited the formation of IGE-like antibodies; Effect in experimental allergic encephalomyelitis model [1]: effective in the experimental allergic encephalomyelitis model; Antifungal activity (Candida albicans): antifungal activity, particularly against Candida albicans, both in vitro and in vivo"
"CON=C1[C@H](C)C[C@H](C)/C=C/C=C/C=C(\C)[C@@H](OC)C[C@@H]2CC[C@@H](C)[C@@](O)(O2)C(=O)C(=O)N2CCCC[C@H]2C(=O)O[C@H]([C@H](C)C[C@@H]2CC[C@@H](O)[C@H](OC)C2)CC(=O)[C@H](C)/C=C(\C)[C@@H](O)[C@H]1OC [Example 3, Rapamycin-O-methyl-27-oxime]",–,9.5 ± 1.4 days,0.2 µg/mL,0.05 µg/mL,0.2 µg/mL,0.2 µg/mL,0.05 µg/mL,0.007,–
C=CC[C@@H]1/C=C(\C)C[C@H](C)C[C@H](OC)[C@H]2O[C@@](O)(C(=O)C(=O)N3CCCC[C@H]3C(=O)O[C@H](/C(C)=C/[C@@H]3CC[C@@H](O)[C@H](OC)C3)[C@H](C)[C@@H](O)CC1=O)[C@H](C)C[C@@H]2OC [FK-506],effective as immunosuppressive agents,–,–,–,–,–,–,–,–
"CO[C@H]1C[C@@H]2CC[C@@H](C)[C@@](O)(O2)C(=O)C(=O)N2CCCC[C@H]2C(=O)O[C@H]([C@H](C)C[C@@H]2CC[C@@H](O)[C@H](OC)C2)CC(=O)[C@H](C)/C=C(\C)[C@@H](O)[C@@H](OC)C(=NOCc2ccccc2)[C@H](C)C[C@H](C)/C=C/C=C/C=C/1C [Example 2, Rapamycin-O-benzyl-27-oxime]",–,9.3 ± 1.4 days,> 0.4 µg/mL,> 0.4 µg/mL,> 0.4 µg/mL,> 0.4 µg/mL,> 0.4 µg/mL,0.87,PLN (ratio) [8]: 1.39
cyclosporin A,effective as immunosuppressive agents,–,–,–,–,–,–,–,–
"CO[C@H]1C[C@@H]2CC[C@@H](C)[C@@](O)(O2)C(=O)C(=O)N2CCCC[C@H]2C(=O)O[C@H]([C@H](C)C[C@@H]2CC[C@@H](O)[C@H](OC)C2)CC(=O)[C@H](C)/C=C(\C)[C@@H](O)[C@@H](OC)C(=NO)[C@H](C)C[C@H](C)/C=C/C=C/C=C/1C (single isomer, unassigned) [isomerically pure mono-oxime, Rapamycin-27-oxime]",–,–,–,–,–,–,–,–,Biological activity of the isomers of Example 1 [9]: biologically inactive
Rapamycin-27-oxime [Example 1],–,10.0 ± 1.6 days,0.05 µg/mL,0.1 µg/mL,0.05 µg/mL,0.2 µg/mL,0.2 µg/mL,0.25,"Biological activity of the isomers of Example 1 [9]: active in the assays described supra; Skin graft survival time (in words) ([2]; compared with grafts without immunosuppressive agent, rejected within 6-7 days): increased survival time observed in the skin graft test procedure; T cell proliferation in the PLN test procedure (in words) ([8]; from negative PLN ratio): may cause T cell proliferation in the PLN test procedure; PLN (ratio) [8]: -1.40"
